Reference: PMC10331583, “Control of fibrosis with enhanced safety via asymmetric inhibition of prolyl‐tRNA synthetase 1” (EMBO Molecular Medicine, 2023)
Values joined by “and” are separate entries in the source; they are usually repeats but may differ in a detail not shown here. Equal values may be shown once.

What was measured:
[1] = Two‐week repeated‐dose toxicity study, HF versus DWN12088; type: in vivo, mice; conditions: male, ICR (CrljOri: CD1), mouse, in vivo; oral once daily for 2 weeks, ICR mice
Experimental: (§1) To compare the in vivo toxicity of HF and DWN12088, all experiments were conducted following the international guidelines on the ethical use of experimental animals and approved by the Institutional Animal Care and Use Committee of KNOTUS (KNOTUS IACUC 21‐KE‐250 and KNOTUS IACUC 21‐KE‐359). ICR (CrljOri: CD1) mice (7‐week‐old, male, obtained from Koatech) were randomized (n = 6 for each group) and then orally administered with the indicated amounts of HF or DWN12088 once daily for 2 weeks. In the high‐dose group, the dose of DWN12088 was reduced from 120 mg/kg to 90 mg/kg from day 6. […] Body weight was measured at day 1, 2, 3, 4, 5, 8, 14, and 15.
(§2) After administering the drugs for 2 weeks, mice were fasted overnight and anesthetized with isoflurane. Blood samples were collected in EDTA‐coated tubes, and the following parameters were determined using a hematology analyzer (ADVIA 2120, SIEMENS, USA); red blood cell, platelet count, hematocrit, white blood cell, red cell distribution width, hemoglobin concentration distribution width, hemoglobin concentration, neutrophil, mean corpuscular volume, lymphocyte, mean cell hemoglobin, monocyte, mean cell hemoglobin concentration, eosinophil, mean platelet volume, basophil, reticulocytes, and large unstained cells.
(§3) For clinical chemistry, the remaining blood samples were incubated in a vacutainer tube with clot activator and then centrifuged to prepare serum. The following parameters were measured in the serum using a chemistry analyzer (7180, Hitachi, Japan) and electrolyte analyzer (AVL 9180, Roche, Switzerland); aspartate aminotransferase, albumin, alanine aminotransferase, albumin/globulin ratio, alkaline phosphatase, blood urea nitrogen, creatine phosphokinase, creatinine, total bilirubin, inorganic phosphorus, glucose, calcium, total cholesterol, sodium, triglyceride, potassium, total protein, and chloride.
(§4) After blood collection, blood was drained by incising the abdominal aorta and posterior vena cava, and all organs of the skin, brain, thoracic cavity, and abdominal cavity were observed. The relative weights of the lung, spleen, liver, heart, kidney, thymus, and testes were calculated by dividing the weight of each organ by the body weight. The experiments were conducted as non‐blind test.

ICR (CrljOri: CD1) mice = assay: as above; type: in vivo
Experimental: as §1, §2, §3, §4

C57BL/6 mice = assay: Bleomycin‐induced lung fibrosis, therapeutic model 2 (compounds from 2 weeks after bleomycin); type: in vivo; conditions: model 2, drug administration from day 14
Experimental: To examine therapeutic efficacy of DWN12088, all experiments were conducted following the international guidelines on the ethical use of experimental animals and approved by the Institutional Animal Care and Use Committee of Daewoong Pharmaceutical (IACUC‐21‐014). C57BL/6 mice (7–8‐week‐old, male, obtained from Orient Bio) were anesthetized with Zoletil and injected intratracheally with 100 μl bleomycin (2 units/kg) (Merck, B8416) to induce lung fibrosis. A group of disease‐free mice (“untreated”) were injected with PBS instead of bleomycin. After a week, mice treated with bleomycin were randomized to (i) vehicle (saline), (ii) HF 0.05 mg/kg, (iii) HF 0.1 mg/kg, and (iv) DWN12088 10 mg/kg groups (n = 5 for each group) according to their body weight. The drugs were orally administered once daily for 2 weeks, and then the outcome was analyzed. For the experiments testing the effect of the compounds 2 weeks after bleomycin challenge, the experiment was approved by IACUC of Daewoong Pharmaceutical (IACUC‐22‐009). […]
The collagen contents of lung tissues were measured using Sircol™ soluble collagen assay (Biocolor Ltd., S1000) following the manufacturer's instructions. […] Tissue extracts were incubated with Sirius red dye, and the absorbance was determined at 540 nm using a spectrophotometer. […]

WI‐26 VA4 cells = assay: Immunoblot of cellular protein levels with different proline content; type: cell-based, human; conditions: Fig 2A
Experimental: (§5) The levels of proteins were determined by immunoblot assay. […] The lowest concentration at which protein levels started to decrease was normalized by IC50 values for collagen level and used as the y‐axis value. […] The slope and R^2 value were calculated using GraphPad Prism 7.0. […] The activation of the TGF‐β pathway was determined by monitoring the phosphorylation of SMAD2. Immunoblot images are representative of three biologically independent experiments. • The band intensities of the immunoblot images in (C) were quantified using ImageJ (n = 3; One‐way ANOVA; *P < 0.05, **P < 0.01, ***P < 0.001; mean ± SEM). Source data are available online for this figure.

phosphorylation of SMAD2 = assay: Phosphorylation of SMAD2 (TGF‐β pathway), immunoblot; type: cell-based, human; conditions: TGF‐β 2 ng/ml, 15 h
Experimental: as §5

[2] = tested on: WI‐26 VA4 cells stably expressing EV (empty vector); assay: Collagen ELISA in cells stably expressing EV; conditions: for Collagen level, average: average of 4 experiments; for Collagen level, single replicates: replicates of Experiments #1-#4

O=C(CC1NCCCC1O)Cn1cnc2cc(Br)c(Cl)cc2c1=O (centres unmarked) [HF, Halofuginone, reference compound]
NOAEL at 2 weeks [1]: < 0.375 mg/kg
Mortality: Found dead (ICR (CrljOri: CD1) mice; 1.5 mg/kg oral once daily, 1 animal on day 5, 2 on day 6): Found dead: 3/6 (1 animal on day 5, 2 animals on day 6) Terminal sacrifice: 3/6 (on day 6)
Mortality: Terminal sacrifice (ICR (CrljOri: CD1) mice; 1.5 mg/kg oral once daily, on day 6): Found dead: 3/6 (1 animal on day 5, 2 animals on day 6) Terminal sacrifice: 3/6 (on day 6)
reduction in body weight (ICR (CrljOri: CD1) mice; mouse, in vivo): > 10%
fibrotic properties (C57BL/6 mice): less apparent
effective dose for decreasing general proteins (SMAD2, AIMP2, AMPKα, cyclin D1) compared with COL1A1 (WI‐26 VA4 cells): about three times
SMAD2 phosphorylation (phosphorylation of SMAD2): reduced SMAD2 phosphorylation
IC50 ([2]; Homo sapiens, WI26VA4, read-out: IC50, collagen level): 15.2 nM
Collagen level, average ([2]; WI-26 VA4 EV, 0.3 nM): 105.43 % of control
Collagen level, single replicates ([2]; WI-26 VA4 EV, 0.3 nM): 107.71 % of control and 102.31 % of control and 99.56 % of control and 107.96 % of control and 119.37 % of control and 97.79 % of control and 105.72 % of control and 112.41 % of control and 97.00 % of control and 105.68 % of control and 103.25 % of control
Collagen level, average ([2]; WI-26 VA4 EV, 1 nM): 98.88 % of control
Collagen level, single replicates ([2]; WI-26 VA4 EV, 1 nM): 99.81 % of control and 96.49 % of control and 94.72 % of control and 113.88 % of control and 89.98 % of control and 98.97 % of control and 99.45 % of control and 90.47 % of control and 100.22 % of control and 101.63 % of control and 90.65 % of control and 110.29 % of control
Collagen level, average ([2]; WI-26 VA4 EV, 3 nM): 98.91 % of control
Collagen level, single replicates ([2]; WI-26 VA4 EV, 3 nM): 95.48 % of control and 110.90 % of control and 101.31 % of control and 98.76 % of control and 84.68 % of control and 101.40 % of control and 94.43 % of control and 83.51 % of control and 102.77 % of control and 119.57 % of control and 100.02 % of control and 94.04 % of control
Collagen level, average ([2]; WI-26 VA4 EV, 10 nM): 67.80 % of control
Collagen level, single replicates ([2]; WI-26 VA4 EV, 10 nM): 70.56 % of control and 73.60 % of control and 52.16 % of control and 80.52 % of control and 55.32 % of control and 68.13 % of control and 71.03 % of control and 51.88 % of control and 67.22 % of control and 78.89 % of control and 53.10 % of control and 91.18 % of control
Collagen level, average ([2]; WI-26 VA4 EV, 30 nM): 31.49 % of control
Collagen level, single replicates ([2]; WI-26 VA4 EV, 30 nM): 29.59 % of control and 29.66 % of control and 28.02 % of control and 34.01 % of control and 34.11 % of control and 31.81 % of control and 31.01 % of control and 33.29 % of control and 33.04 % of control and 33.86 % of control and 29.96 % of control and 29.53 % of control
Collagen level, average ([2]; WI-26 VA4 EV, 100 nM): 6.34 % of control
Collagen level, single replicates ([2]; WI-26 VA4 EV, 100 nM): 7.42 % of control and 5.23 % of control and 5.03 % of control and 5.46 % of control and 5.70 % of control and 6.01 % of control and 7.87 % of control and 7.08 % of control and 6.26 % of control and 7.39 % of control and 6.77 % of control and 5.82 % of control
Collagen level, average ([2]; WI-26 VA4 EV, 300 nM): 4.49 % of control
Collagen level, single replicates ([2]; WI-26 VA4 EV, 300 nM): 4.87 % of control and 3.68 % of control and 2.38 % of control and 3.50 % of control and 4.00 % of control and 5.84 % of control and 5.04 % of control and 4.31 % of control and 5.22 % of control and 6.88 % of control and 2.82 % of control and 5.35 % of control
Collagen level, average ([2]; WI-26 VA4 EV, 1000 nM): 5.68 % of control
Collagen level, single replicates ([2]; WI-26 VA4 EV, 1000 nM): 6.31 % of control and 4.51 % of control and 4.24 % of control and 5.46 % of control and 6.24 % of control and 6.40 % of control and 5.99 % of control and 5.56 % of control and 5.73 % of control and 6.61 % of control and 4.97 % of control and 6.15 % of control
HillSlope, collagen level ([2]; WI-26 VA4 EV, four-parameter fit): -1.549
LogIC50, collagen level ([2]; WI-26 VA4 EV, log of concentration in nM, four-parameter fit): 1.181
